The target of test [1] is T1, HCV NS3/4A protease complex, BMS strain (UniProt P27958, C1454S/C1711G, species not given).
T1 construct: other: HCV NS3/4A enzyme assay; class symbols; numeric values; fused on or other part: three-lysine solubilising tail at the C-terminus of NS4A; purified on Ni-NTA from the pET21b vector (His tag implied)
Nature of the test: FRET peptide assay to monitor HCV NS3/4A proteolytic activity (BMS strain). Type of test: biochemical, HCV genotype 1a. The note with it: read-out: IC50 Range; HCV NS3/4A enzyme assay; class symbols. The method in brief:
(§1)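 Recombinant HCV NS3/4A protease complex (BMS strain, genotype 1a), 2-3 nM final (300 pM with 50 μg/ml BSA for very potent compounds), incubated with RET S1 EDANS/DABCYL depsipeptide substrate at 2 μM final. Buffer: 50 mM HEPES pH 7.5, 0.15 M NaCl, 0.1% Triton, 15% glycerol, 10 mM βME. Cleavage followed in real time by fluorescence.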

Test [2] deals with T2, HCV NS3/4A protease complex, BMS strain (UniProt P27958, C1454S/C1711G, species not given/STRAIN_BMS).
T2 construct: other: BMS strain; fused on or other part: three-lysine solubilising tail at the C-terminus of NS4A; purified on Ni-NTA from the pET21b vector (His tag implied)
The test is described as above. The settings on record: read-out: IC50 against the NS3/4A BMS strain in the enzyme assay; BMS strain. Type of test: biochemical, HCV genotype 1a. The method in brief: as §1

Test [3] addresses T3, human neutrophil elastase (HNE) (Homo sapiens, UniProt P08246).
T3 construct: purchased Sigma, EMDbiosciences
T3 sequence (P08246 30-247 limits assumed): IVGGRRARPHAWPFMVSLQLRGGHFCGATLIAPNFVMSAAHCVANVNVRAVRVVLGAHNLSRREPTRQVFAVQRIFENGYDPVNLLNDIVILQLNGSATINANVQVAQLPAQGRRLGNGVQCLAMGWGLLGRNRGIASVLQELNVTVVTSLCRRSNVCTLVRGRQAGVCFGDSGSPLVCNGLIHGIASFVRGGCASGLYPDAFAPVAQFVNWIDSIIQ
Nature of the test: Specificity assay, elastase (HNE). The note with it: read-out: HLE activity in the specificity assays. In kind it is biochemical. As to the method: The specificities of compounds of the present disclosure were determined against a variety of serine proteases: human neutrophil elastase (HNE), porcine pancreatic elastase (PPE) and human pancreatic chymotrypsin and one cysteine protease: human liver cathepsin B. In all cases a 96-well plate format protocol using a fluorometric Amino-Methyl-Coumarin (AMC) substrate specific for each enzyme was used as described previously (PCT Patent Application No. WO 00/09543) with some modifications to the serine protease assays. All enzymes were purchased from Sigma, EMDbiosciences while the substrates were from Bachem, Sigma and EMDbiosciences.
Compound concentrations varied from 100 to 0.4 μM depending on their potency. The enzyme assays were each initiated by addition of substrate to enzyme-inhibitor pre-incubated for 10 min at room temperature and hydrolysis to 15% conversion as measured on cytofluor.
50 mM Tris-HCl, pH 8.0, 50 mM NaCl, 0.1 mM EDTA, 3% DMSO, 0.02% Tween-20, 5 μM succ-AAPV-AMC and 20 nM HNE or 8 nM PPE;
The percentage of inhibition was calculated using the formula: [1−((UVinh−UVblank)/(UVctl−UVblank))]×100
A non-linear curve fit was applied to the inhibition-concentration data, and the 50% effective concentration (IC50) was calculated by the use of Excel XLfit software.

On to `C=C[C@@H]1C[C@]1(NC(=O)[C@@H]1C[C@@H](Oc2ncc(OC)c3ccc(Cl)cc23)CN1C(=O)[C@@H](Nc1nc(-c2cccc(OC(F)(F)F)c2)cs1)C(C)(C)C)C(=O)NS(=O)(=O)C1CC1` [Example 68], for which the IC50 in test [1] was 1 to 20 nM; in test [2] it was 4 nM; in test [3] it was over 50000 nM.
